Assay results from publication PMC10077203, “Structure modification, antialgal, antiplasmodial, and toxic evaluations of a series of new marine-derived 14-membered resorcylic acid lactone derivatives” (Marine Life Science & Technology, 2021).
Converted amounts (≈) assume the structure as drawn.

What was measured:
C. socialis = assay: Diatom growth inhibition assay (antialgal activity); format: cell-based, Chaetoceros socialis; conditions: Chaetoceros socialis, 48 h, chlorophyll a of attached microalgae, read-out: EC50 C. socialis
Description: (§1) The antialgal activity against the microalgae P. tricornutum Bohlin, C. vulgaris, C. socialis, N. laevissima, and N. exigua was evaluated by the method of Ortlepp et al. ([2008]). Briefly, the microalgae were grown in sterilized BG11 medium under light intensity of 2500 lx and 12 h: 12 h light: dark cycle at temperature of 20 ℃. The microalgae were grown to reach the logarithmic phase (approximately 5 × 10^5 cells/ml), which were used for microalgae growth inhibition assay. The compounds 1–71 were first dissolved in a small amount of DMSO and then diluted with 0.22 μm of filtered seawater (FSW) to achieve a range of concentrations from 0.625 to 50 μg/ml. Ten microliters of the compound solution was added to multiwell Petri dishes containing a 1-mL suspension of the microalgae (approximately 12 × 10^4 cells/ml). FSW with DMSO was used as a negative control, and solutions of SeaNine 211 in seawater were used as positive controls. After the plates were incubated for 48 h (16 ± 1 ℃) under continuous light, the FSW with non-attached microalgae was removed. The amount of chlorophyll a in attached microalgae was determined with a spectrophotometer (Beckman, model DU650, USA). Then the EC50 (inhibits 50% of settlement of cyprids in comparison with the control) was calculated using the Probit software program.

[1] = tested on: P. tricornutum Bohlin, C. vulgaris, C. socialis, N. laevissima, and N. exigua; assay: Diatom growth inhibition assay, whole panel; format: cell-based; conditions: Chlorella vulgaris; selective and moderate activities; read-out: EC50 antialgal, range over compounds and algae
Description: as §1

P. tricornutum Bohlin = assay: Diatom growth inhibition assay (antialgal activity); format: cell-based, Phaeodactylum tricornutum Bohlin; conditions: Phaeodactylum tricornutum, 48 h, chlorophyll a of attached microalgae, read-out: EC50 P. tricornutum
Description: as §1

N. exigua = assay: as above; format: cell-based, Navicula exigua; conditions: 48 h, chlorophyll a of attached microalgae, read-out: EC50 N. exigua
Description: as §1

[2] = tested on: chloroquine sensitive HB3 strain of P. falciparum; assay: In vitro antiplasmodial assay (Pico-Green growth inhibition); format: cell-based, Plasmodium falciparum; conditions: for IC50: Plasmodium falciparum, Erythrocyte, HB3 strain in human erythrocytes, read-out: P. falciparum IC50; for antiplasmodial activity against P. falciparum (in words): structure-activity discussion; for P. falciparum SI, Selectivity Index (CC50/IC50): CC50 HUVEC / IC50 P. falciparum
Description: In vitro antiplasmodial activity was performed by culturing human erythrocytes and infecting them with P. falciparum, as reported by Trager and Jensen ([1976]). Briefly, the chloroquine sensitive HB3 strain of P. falciparum-infected O + erythrocytes was cultured in RPMI 1640 medium supplemented with 10% human serum (from O + blood) at a hematocrit of 2% erythrocytes at 37 °C with a gas mixture containing 90% N2, 5% CO2, and 5% O2. Parasites were synchronized with 5% D-sorbitol (Lambros and Vanderberg [1979]). P. falciparum growth inhibition bioassays were performed with the procedure as described by Corbett et al. ([2004]), which used Pico-Green, a double stranded-DNA fluorescent dye to test the effect of compounds.

N. laevissima = assay: Diatom growth inhibition assay (antialgal activity); format: cell-based, Navicula laevissima; conditions: Sellaphora laevissima, 48 h, chlorophyll a of attached microalgae, read-out: EC50 N. laevissima
Description: as §1

C. vulgaris = assay: as above; format: cell-based, Chlorella vulgaris; conditions: Chlorella vulgaris; 48 h, chlorophyll a of attached microalgae; read-out: EC50 C. vulgaris
Description: as §1

zebrafish embryos = assay: Zebrafish embryo toxicity test; format: in vivo; conditions: for death of zebrafish embryos: 50 μmol/L, after 24 h; for survival of zebrafish embryos: 100 μmol/L, 52 h
Description: Toxicity assays were carried out using the method of Wang et al. ([2011]). Briefly, the normal embryos were selected and transferred into a 24-well plate. The embryos at 1 h postfertilization (hpf) were exposed by immersion in E3 embryo medium containing the derivative in a 1% (v/v) DMSO final solvent concentration in a 24-well plate. The developmental phenotypes of the experimental status of the embryos were observed every 24 h for 72 h and were photographed with a charge-coupled device (CCD) camera.

Staphylococcus aureus = assay: Antimicrobial assay (serial dilution, MIC); format: cell-based; conditions: 37 °C, 24 h, read-out: minimum inhibitory concentration (MIC) S. aureus
Description: The antimicrobial activities were carried out by a serial dilution technique using 96-well microtiter plates (Pierce et al. [2008]). The derivatives were dissolved in DMSO to obtain a stock solution. Microbial species were cultured overnight at 37 °C in LB broth and diluted to 10^6 cfu/ml when used. LB broth was used as a blank control, and DMSO was used as a negative control, while ciprofloxacin was used as a positive control. The plates were incubated at 37 °C for 24 h.

[3] = In vitro cytotoxicity (CC50); format: cell-based; conditions: human, HUVEC cells
Excerpt: Toxicity is a major concern of drug discovery and development, and the selectivity index (SI) is used as the evaluation parameter of drug potential of the test samples by comparing the toxicity on a human cell line (CC50) and the selective inhibitory effect on P. falciparum (IC50) calculated here as CC50/IC50. We decided to evaluate in vitro cytotoxicity of the active derivatives 38, 39, 50, 52, 65, 67, 70, and 71 by determining their 50% cytotoxic concentrations. The results are presented in Table 3, presenting only those CC50 values > 100 μmol/L, reaching selectivity indexes > 10. The cytotoxic concentration at 150 μmol/L was not be determined because of a lack of solubility of the tested molecule in the culture medium. Moreover, the toxicity of these derivatives was also evaluated against two other cell lines: hepatocellular liver carcinoma cell line (Hep G2) and cervical carcinoma (HeLa), finding CC50 values > 100 μmol/L.

[4] = tested on: larval settlement of the barnacle Balanus Amphitrite; set-up: method as in Shao et al. [2011]; conditions: ref Shao et al. [2011]; cited from earlier work

SMILES | EC50 (C. socialis) [µM] | EC50 [1] [µM] | EC50 (P. tricornutum Bohlin) [µM] | EC50 (N. exigua) [µM] | IC50 [2] [µM] | EC50 (N. laevissima) [µM] | EC50 (C. vulgaris) [µM] | CC50 [3] [µM] | P. falciparum SI, Selectivity Index (CC50/IC50) [2] | further results
COc1cc(COc2cc(OC)c(Cl)c3c2C(=O)OC(C)CC=CC(O)C(O)C(O)CC=C3)cc(OC)c1 (stereo not drawn) [Compound 13] | 24 | 11 to 32.5 | 14 | > 10 | 12.6 | 16.9 | > 10 |  |  | antiplasmodial activity against P. falciparum (in words) [2]: active
COc1cc2c(c(OCc3ccc4ccccc4c3)c1)C(=O)OC(C)CC=CC(O)C(O)C(O)CC=C2 (stereo not drawn) [Compound 14] | 17.2 | 11 to 32.5 | > 10 | 18.5 |  | 20.4 | > 10 |  |  | death of zebrafish embryos (zebrafish embryos): all embryos died
COc1cc2c(c(OCc3ccc(C(C)(C)C)cc3)c1)C(=O)OC(C)CC=CC(O)C(O)C(O)CC=C2 (stereo not drawn) [Compound 26] | 18.4 | 11 to 32.5 | 25.7 | > 10 |  | > 10 | > 10 |  |  | death of zebrafish embryos (zebrafish embryos): all embryos died; MIC (Staphylococcus aureus): 25 µM (≈ 12.8 µg/mL)
COc1cc2c(c(OCc3ccc(-c4ccccc4C#N)cc3)c1)C(=O)OC(C)CC=CC1OC(C)(C)OC1C(O)CC=C2 (stereo not drawn) [Compound 38] |  |  |  |  | 8.06 |  |  | > 100 | > 12 | survival of zebrafish embryos (zebrafish embryos): All embryos survived
COC(=O)c1ccccc1-c1ccc(COc2cc(OC)cc3c2C(=O)OC(C)CC=CC2OC(C)(C)OC2C(O)CC=C3)cc1 (stereo not drawn) [Compound 39] |  |  |  |  | 6.69 |  |  | > 100 | > 14 | survival of zebrafish embryos (zebrafish embryos): All embryos survived
COc1cc(COc2cc(OC)c(Cl)c3c2C(=O)OC(C)CC=CC2OC(C)(C)OC2C(O)CC=C3)cc(OC)c1 (stereo not drawn) [Compound 50] |  |  |  |  | 7.82 |  |  | > 100 | > 12 | antiplasmodial activity against P. falciparum (in words) [2]: active
COC(=O)c1ccc(COc2cc(OC)c(Cl)c3c2C(=O)OC(C)CC=CC2OC(C)(C)OC2C(O)CC=C3)cc1 (stereo not drawn) [Compound 52] |  |  |  |  | 9.72 |  |  | > 100 | > 10 | 
[2H]C([2H])([2H])C1(C([2H])([2H])[2H])OC2C=CCC(C)OC(=O)c3c(cc(OC)cc3OCc3cccc(C)c3)C=CCC(O)C2O1 (stereo not drawn) [Compound 62] | 25.8 | 11 to 32.5 | > 10 | 14.2 |  | > 10 | 16.3 |  |  | 
[2H]C([2H])([2H])C1(C([2H])([2H])[2H])OC2C=CCC(C)OC(=O)c3c(cc(OC)cc3OCc3ccc(-c4ccccc4C#N)cc3)C=CCC(O)C2O1 (stereo not drawn) [Compound 65] |  |  |  |  | 7.82 |  |  | > 100 | > 12 | 
[2H]C([2H])([2H])C1(C([2H])([2H])[2H])OC2C=CCC(C)OC(=O)c3c(cc(OC)cc3OCc3ccc(-c4ccccc4C(=O)OC)cc3)C=CCC(O)C2O1 (stereo not drawn) [Compound 67] |  |  |  |  | 7.25 |  |  | > 100 | > 13 | 
CCC(=O)Oc1cc(OC)c(Cl)c2c1C(=O)OC(C)CC=CC(OC(=O)CC)C(OC(=O)CC)C(OC(=O)CC)CC=C2 (stereo not drawn) [Compound 70] |  |  |  |  | 6.91 |  |  | > 100 | > 14 | 
COc1cc(OC(=O)C(C)(C)C)c2c(c1Cl)C=CCC(OC(=O)C(C)(C)C)C(O)C(OC(=O)C(C)(C)C)C=CCC(C)OC2=O (stereo not drawn) [Compound 71] |  |  |  |  | 3.54 |  |  | > 100 | > 28 | 
COc1cc(O)c2c(c1)/C=C/C[C@H](O)[C@@H]1OC(C)(C)O[C@H]1C=CC[C@H](C)OC2=O [cochliomycin A] |  |  |  |  |  |  |  |  |  | concentration of significant antifouling activity against larval settlement [4]: 1.2 µg/mL
